Laboratory results reported in PubChem BioAssay (NCI).
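Assay format: 96-well plates, 48-hour exposure. TGI is the concentration that stops growth completely.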

Columns and labels:
Experiment in all cases: NCI tumour cell line growth inhibition, 48 h
[1] = system: 786-0 renal
[2] = system: A498 renal
[3] = system: A549 NSCLC
[4] = system: ACHN renal
[5] = system: BT-549 breast
[6] = system: CAKI-1 renal
[7] = system: CCRF-CEM leukemia
[8] = system: COLO 205 colon
[9] = system: DLD-1 colon
[10] = system: DMS 114 small cell lung
[11] = system: DMS 273 small cell lung
[12] = system: DU-145 prostate
[13] = system: EKVX NSCLC
[14] = system: HCC-2998 colon
[15] = system: HCT-116 colon
[16] = system: HCT-15 colon
[17] = system: HL-60(TB) leukemia
[18] = system: HOP-18 NSCLC
[19] = system: HOP-62 NSCLC
[20] = system: HOP-92 NSCLC
[21] = system: HS 578T breast
[22] = system: HT29 colon
[23] = system: IGROV1 ovarian
[24] = system: K-562 leukemia
[25] = system: KM12 colon
[26] = system: KM20L2 colon
[27] = system: LOX IMVI melanoma
[28] = system: M14 melanoma
[29] = system: M19-MEL melanoma
[30] = system: MALME-3M melanoma
[31] = system: MCF7 breast
[32] = system: MDA-MB-231 breast
[33] = system: MDA-MB-435
[34] = system: MDA-N
[35] = system: MOLT-4 leukemia
[36] = system: NCI-H226 lung
[37] = system: NCI-H23 lung
[38] = system: NCI-H460 lung
[39] = system: NCI-H522 lung
[40] = system: NCI/ADR-RES ovarian
[41] = system: OVCAR-3 ovarian
[42] = system: OVCAR-4 ovarian
[43] = system: OVCAR-5 ovarian
[44] = system: OVCAR-8 ovarian
[45] = system: P388 leukemia
[46] = system: P388/ADR leukemia
[47] = system: PC-3 prostate
[48] = system: RPMI-8226 leukemia
[49] = system: RXF 393 renal
[50] = system: SF-268 CNS
[51] = system: SF-295 CNS
[52] = system: SF-539 CNS
[53] = system: SK-MEL-2 melanoma
[54] = system: SK-MEL-28 melanoma
[55] = system: SK-MEL-5 melanoma
[56] = system: SK-OV-3 ovarian
[57] = system: SN12C renal
[58] = system: SN12K1 renal
[59] = system: SNB-19 CNS
[60] = system: SNB-75 CNS
[61] = system: SNB-78 CNS
[62] = system: SR leukemia
[63] = system: SW-620 colon
[64] = system: T-47D breast
[65] = system: TK-10 renal
[66] = system: U251 CNS
[67] = system: UACC-257 melanoma
[68] = system: UACC-62 melanoma
[69] = system: UO-31 renal
[70] = system: XF 498 CNS

COc1ccc(S(=O)(=O)N/N=C/C(=O)O)cc1
TGI [1]: 971 µM | TGI [2]: 1210 µM | TGI [3]: > 1250 µM | TGI [4]: 970 µM | TGI [5]: 704 µM | TGI [6]: 1230 µM | TGI [7]: 712 µM | TGI [8]: > 1250 µM | TGI [9]: > 1250 µM | TGI [10]: 1230 µM | TGI [11]: > 1200 µM | TGI [12]: 843 µM | TGI [13]: > 1250 µM | TGI [14]: > 1250 µM | TGI [15]: 1030 µM | TGI [16]: 1080 µM | TGI [17]: 463 µM | TGI [18]: > 1250 µM | TGI [19]: 1130 µM | TGI [20]: 1110 µM | TGI [21]: 1040 µM | TGI [22]: > 580 µM | TGI [23]: 1060 µM | TGI [24]: > 1170 µM | TGI [25]: > 1170 µM | TGI [26]: > 1250 µM | TGI [27]: 733 µM | TGI [28]: > 1250 µM | TGI [29]: > 1250 µM | TGI [30]: > 1250 µM | TGI [31]: > 1210 µM | TGI [32]: > 1250 µM | TGI [33]: > 1250 µM | TGI [34]: > 1200 µM | TGI [35]: 694 µM | TGI [36]: > 1220 µM | TGI [37]: 867 µM | TGI [38]: > 1230 µM | TGI [39]: 644 µM | TGI [40]: 1030 µM | TGI [41]: 1160 µM | TGI [42]: > 1210 µM | TGI [43]: > 1150 µM | TGI [44]: 1100 µM | TGI [45]: 787 µM | TGI [46]: 721 µM | TGI [47]: > 1250 µM | TGI [48]: 887 µM | TGI [49]: 1150 µM | TGI [50]: 975 µM | TGI [51]: 1070 µM | TGI [52]: 1080 µM | TGI [53]: 826 µM | TGI [54]: > 1250 µM | TGI [55]: 894 µM | TGI [56]: > 1250 µM | TGI [57]: 1140 µM | TGI [58]: > 1250 µM | TGI [59]: > 1250 µM | TGI [60]: > 1250 µM | TGI [61]: > 1250 µM | TGI [62]: 603 µM | TGI [63]: 1230 µM | TGI [64]: > 1250 µM | TGI [65]: > 1250 µM | TGI [66]: 1200 µM | TGI [67]: > 1250 µM | TGI [68]: 984 µM | TGI [69]: > 1250 µM | TGI [70]: > 1080 µM
